Test results published in article PMC6071264 (Toxins, 2018).
Bridge positions count the residues as written; N and C are the ends. Peptide text beside a SMILES is read from it.

Legend:
[1] = target: T84 cells (Homo sapiens, UniProt P25092); assay: T84 cell assay (cGMP response); format: cell-based; settings: read-out: EC50 in the T84 cell assay, pre-incubation 1 mM IBMX 10 min, sample 60 min at 37 °C, cGMP enzyme immunoassay, three independent experiments, four-parameter logistic regression, bottom set to zero, Figure 2C
Sequence of T84 cells (P25092 24-1073): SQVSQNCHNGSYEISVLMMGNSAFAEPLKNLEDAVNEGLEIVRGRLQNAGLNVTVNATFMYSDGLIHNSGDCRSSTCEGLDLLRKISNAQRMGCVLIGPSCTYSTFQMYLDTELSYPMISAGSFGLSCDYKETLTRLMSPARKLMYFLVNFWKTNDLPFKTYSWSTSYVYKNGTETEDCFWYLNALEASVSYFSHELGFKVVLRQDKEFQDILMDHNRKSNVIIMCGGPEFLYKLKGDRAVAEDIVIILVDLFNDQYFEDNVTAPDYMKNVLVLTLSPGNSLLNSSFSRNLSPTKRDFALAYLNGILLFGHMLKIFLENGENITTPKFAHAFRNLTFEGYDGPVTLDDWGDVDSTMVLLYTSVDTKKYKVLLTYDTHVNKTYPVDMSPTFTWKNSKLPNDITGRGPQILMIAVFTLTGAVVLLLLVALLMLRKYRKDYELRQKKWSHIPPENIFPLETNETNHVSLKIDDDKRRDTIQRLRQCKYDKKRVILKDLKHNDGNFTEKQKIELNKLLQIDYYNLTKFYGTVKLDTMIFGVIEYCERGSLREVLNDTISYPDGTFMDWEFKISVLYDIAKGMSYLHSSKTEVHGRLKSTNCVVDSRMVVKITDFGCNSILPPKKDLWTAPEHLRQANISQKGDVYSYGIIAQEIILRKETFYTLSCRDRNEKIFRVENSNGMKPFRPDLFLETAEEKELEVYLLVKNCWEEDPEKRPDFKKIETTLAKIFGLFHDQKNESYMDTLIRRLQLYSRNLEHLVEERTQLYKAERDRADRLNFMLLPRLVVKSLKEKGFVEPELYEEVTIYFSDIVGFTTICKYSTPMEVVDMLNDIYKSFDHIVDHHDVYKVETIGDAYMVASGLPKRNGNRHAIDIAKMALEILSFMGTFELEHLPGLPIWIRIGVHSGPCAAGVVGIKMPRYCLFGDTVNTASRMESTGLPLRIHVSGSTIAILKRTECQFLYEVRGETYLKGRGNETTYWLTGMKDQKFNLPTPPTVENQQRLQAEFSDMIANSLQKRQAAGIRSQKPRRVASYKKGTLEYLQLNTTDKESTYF

[2] = system: C30 anti-STp monoclonal antibody; settings: read-out: IC50, inhibition of C30 mAb binding to ELISA coating (peptides from RP-HPLC peaks)

Compound | EC50 [1] | IC50 [2]
CC(C)C[C@@H]1NC(=O)[C@H](CCC(=O)O)NC(=O)[C@@H]2CSSC[C@@H]3NC(=O)[C@H](C)NC(=O)[C@@H]4CCCN4C(=O)[C@H](CC(N)=O)NC(=O)[C@H](CSSC[C@H](NC(=O)[C@H](Cc4ccc(O)cc4)NC(=O)[C@H](CC(N)=O)NC(=O)[C@H](CO)NC(=O)[C@H](CO)NC(=O)[C@@H](N)CC(N)=O)C(=O)N2)NC(=O)[C@H](CSSC[C@@H](C(=O)N[C@@H](Cc2ccc(O)cc2)C(=O)O)NC(=O)CNC(=O)[C@H]([C@@H](C)O)NC3=O)NC1=O [ETEC STh] (H-NSSNYCCELCCNPACTGCY-OH; disulfide 6-11, 7-15, 10-18; N-terminus and C-terminus assumed) | 22.9 ± 6.8 nM | 
CC(C)C[C@@H]1NC(=O)[C@H](CCC(=O)O)NC(=O)[C@@H]2CSSC[C@@H]3NC(=O)[C@H](C)NC(=O)[C@@H]4CCCN4C(=O)[C@H](CC(N)=O)NC(=O)[C@H](CSSC[C@H](NC(=O)[C@H](Cc4ccc(O)cc4)NC(=O)[C@H](CC(N)=O)NC(=O)[C@H](CO)NC(=O)[C@H](CO)NC(=O)[C@@H](N)CC(N)=O)C(=O)N2)NC(=O)[C@H](CSSC[C@@H](C(=O)N[C@@H](Cc2ccc(O)cc2)C(=O)O)NC(=O)CNC(=O)[C@H]([C@@H](C)O)NC3=O)NC1=O [STh] (H-NSSNYCCELCCNPACTGCY-OH; disulfide 6-11, 7-15, 10-18) | 15.4 ± 3 nM | 4.2 ± 0.3 nM
CC(C)C[C@@H]1NC(=O)[C@H](CCC(=O)O)NC(=O)[C@@H]2CSSC[C@@H]3NC(=O)[C@H](C)NC(=O)[C@@H]4CCCN4C(=O)[C@H](CC(N)=O)NC(=O)[C@H](CSSC[C@H](NC(=O)[C@H](Cc4ccc(O)cc4)NC(=O)[C@H](Cc4ccccc4)NC(=O)[C@@H](NC(=O)[C@@H](N)CC(N)=O)[C@@H](C)O)C(=O)N2)NC(=O)[C@H](CSSC[C@@H](C(=O)N[C@@H](Cc2ccc(O)cc2)C(=O)O)NC(=O)CNC(=O)[C@H](C)NC3=O)NC1=O [STp] | 15.4 ± 3.8 nM | 
CC(C)C[C@@H]1NC(=O)[C@H](CCC(=O)O)NC(=O)[C@@H]2CSSC[C@@H]3NC(=O)[C@H](C)NC(=O)[C@@H]4CCCN4C(=O)[C@H](CC(N)=O)NC(=O)[C@H](CSSC[C@H](NC(=O)[C@H](Cc4ccc(O)cc4)NC(=O)[C@H](CC(N)=O)NC(=O)[C@H](CO)NC(=O)[C@H](CO)NC(=O)[C@@H](N)CC(N)=O)C(=O)N2)NC(=O)[C@H](CSSC[C@@H](C(=O)N[C@@H](Cc2ccc(O)cc2)C(=O)O)NC(=O)CNC(=O)[C@H]([C@@H](C)O)NC3=O)NC1=O [synthetic STh] (H-NSSNYCCELCCNPACTGCY-OH; disulfide 6-11, 7-15, 10-18) | 9.6 ± 1.8 nM | 2.3 ± 0.1 nM
